Assay results as given in ChEMBL document CHEMBL4219248, “Design, in silico prioritization and biological profiling of apoptosis-inducing lactams amenable by the Castagnoli-Cushman reaction” (Bioorg Med Chem, 2018).

Tests used:
HCT-116 [1] = assay: Induction of apoptosis in human HCT116 p53+ cells at 5 uM by Annexin V-FITC staining-based flow cytometric analysis relative to Nutlin-3a; type: functional
U2OS [2] = assay: Cytotoxicity against human U2OS cells harboring p53-dependent EGFP reporter gene assessed as reduction in cell viability at 5 uM after 48 hrs; type: cell-based
HCT-116 [3] = assay: Antiproliferative activity against human HCT116 p53-/- cells assessed as growth inhibition after 24 hrs by EdU/Hoechst 33342 staining-based fluorescence analysis; type: functional; conditions: HCT-116, 24 h
HCT-116 [4] = assay: Antiproliferative activity against human HCT116 p53+/+ cells assessed as growth inhibition after 24 hrs by EdU/Hoechst 33342 staining-based fluorescence analysis; type: functional; conditions: HCT-116, 24 h
U2OS [5] = assay: Cytotoxicity against human U2OS cells harboring p53-dependent EGFP reporter gene assessed as reduction in cell viability at 30 uM after 48 hrs; type: cell-based

SMILES | Activity (HCT-116 [1]) [%] | Activity (U2OS [2]) | GI50 (HCT-116 [3]) [µM] | GI50 (HCT-116 [4]) [µM] | Activity (U2OS [5])
O=C(NCc1ccc2c(c1)OCO2)[C@H]1CC(=O)N(c2ccc(F)c(F)c2)[C@@H]1c1ccc(Cl)cc1 (mixture of isomers) | 16 | Toxic | – | – | –
CCOc1cccc(CNC(=O)[C@H]2OCC(=O)N(c3ccc(F)c(F)c3)[C@@H]2c2cccc(C)c2)c1 (mixture of isomers) | 10.3 | Toxic | – | – | –
COc1ccc(CNC(=O)[C@H]2OCC(=O)N(c3ccc(Cc4ccncc4)cc3)[C@@H]2c2ccc(Cl)cc2)cc1 (mixture of isomers) | 6.4 | Toxic | – | – | –
CCOc1ccc(CNC(=O)[C@H]2OCC(=O)N(c3ccc(F)c(F)c3)[C@@H]2c2cccc(C)c2)cc1 (mixture of isomers) | 8.5 | Toxic | – | – | –
CC(C)Oc1ccc([C@@H]2[C@@H](C(=O)NCc3ccccc3CN3CCOCC3)CCC(=O)N2c2ccc(Cc3ccncc3)cc2)cc1 (mixture of isomers) | 1.6 | Toxic | – | – | –
Cc1cccc([C@@H]2[C@@H](C(=O)NCc3cccnc3)OCC(=O)N2c2ccc(F)c(F)c2)c1 (mixture of isomers) | 6.7 | Toxic | – | – | –
COc1ccc(CNC(=O)[C@H]2OCC(=O)N(c3ccc(F)c(Cl)c3)[C@@H]2c2ccc(Cl)cc2)cc1 (racemic) | 85.3 | Toxic | 62 | 18 | –
Cc1cccc(CNC(=O)[C@@H]2[C@@H](c3ccc(Cl)cc3)N(c3ccc(Cl)cc3)C(=O)CN2C(=O)c2ccncc2)c1 (racemic) | 63.4 | Toxic | 80 | 30 | –
Cc1ccc(CNC(=O)[C@H]2OCC(=O)N(c3ccc(F)c(Cl)c3)[C@@H]2c2cccc(C)c2)cc1 (racemic) | 9.5 | Toxic | – | – | –
COc1ccc(CNC(=O)[C@H]2CC(=O)N(c3ccc(F)c(Cl)c3)[C@@H]2c2ccc(Cl)cc2)c(OC)c1 (racemic) | 75 | Toxic | 71 | 22 | –
Cc1cccc([C@@H]2[C@@H](C(=O)NCc3ccc(F)cc3)OCC(=O)N2c2ccc(F)c(Cl)c2)c1 (racemic) | 17 | Toxic | – | – | –
CCOc1cccc(CNC(=O)[C@H]2OCC(=O)N(c3ccccc3)[C@@H]2c2cccc(F)c2)c1 (racemic) | 3.2 | Toxic | – | – | –
Cc1ccc(CNC(=O)[C@H]2OCC(=O)N(c3ccc(F)c(Cl)c3)[C@@H]2c2cccc(F)c2)cc1 (racemic) | 20.1 | Toxic | – | – | –
COCCCN(Cc1ccc(N(C)C)cc1)C(=O)[C@H]1OCC(=O)N(c2ccc(Cc3ccncc3)cc2)[C@@H]1c1ccc(Cl)cc1 (racemic) | 11.1 | Toxic | – | – | –
Cc1cccc([C@@H]2[C@@H](C(=O)NCc3ccccc3)OCC(=O)N2c2ccc(F)c(Cl)c2)c1 (racemic) | 3.7 | Toxic | – | – | –
Cc1cccc([C@@H]2[C@@H](C(=O)NCc3ccccc3F)OCC(=O)N2c2ccc(F)c(Cl)c2)c1 (racemic) | 18.9 | Toxic | – | – | –
O=C(NCc1ccc2c(c1)OCO2)[C@H]1OCC(=O)N(c2cccc(Cl)c2)[C@@H]1c1ccc(Cl)cc1 (racemic) | 66.5 | Toxic | 72 | 20 | –
Cc1cccc([C@@H]2[C@@H](C(=O)NCc3cccnc3)OCC(=O)N2c2ccc(F)c(Cl)c2)c1 (racemic) | 12.4 | Toxic | – | – | –
COc1ccc(CN(CCCN2CCOCC2)C(=O)[C@H]2OCC(=O)N(c3ccc(Cc4ccncc4)cc3)[C@@H]2c2ccc(Cl)cc2)cc1 (racemic) | 1.6 | Toxic | – | – | –
O=C(NCc1ccc2c(c1)OCCO2)[C@H]1CC(=O)N(c2ccc(F)c(F)c2)[C@@H]1c1ccc(Cl)cc1 (racemic) | 16 | Toxic | – | – | –
Cc1cccc([C@@H]2[C@@H](C(=O)NCc3ccc(Cl)cc3)OCC(=O)N2c2ccc(F)c(F)c2)c1 (racemic) | 7.1 | Toxic | – | – | –

SMILES | Activity (HCT-116 [1]) [%] | Activity (U2OS [2]) | GI50 (HCT-116 [3]) [µM] | GI50 (HCT-116 [4]) [µM] | Activity (U2OS [5])
CN(C)c1ccc([C@@H]2[C@@H](C(=O)NCc3ccccc3CN3CCCC3=O)OCC(=O)N2c2ccc(Cc3ccncc3)cc2)cc1 (racemic) | 0 | Toxic | – | – | –
C=CCOc1ccc([C@@H]2[C@@H](C(=O)NCCc3ccc(OC)c(OC)c3)N(C(=O)c3cccc(F)c3)CC(=O)N2C)cc1OCC (racemic) | 0 | Toxic | – | – | –
O=C(NCc1ccccc1CN1CCCC1=O)[C@H]1CC(=O)N(c2ccc(F)c(Cl)c2)[C@@H]1c1ccc(Cl)cc1 (racemic) | 123.9 | Toxic | 32 | 7 | –
O=C(NCc1ccc2c(c1)OCO2)[C@H]1CC(=O)N(c2ccc(F)c(Cl)c2)[C@@H]1c1ccc(Cl)cc1 (racemic) | 90.7 | Toxic | 29 | 8 | –
COc1ccc(CNC(=O)[C@H]2OCC(=O)N(c3cccc(Cl)c3)[C@@H]2c2cccc(F)c2)cc1 (racemic) | 0 | Toxic | – | – | –
O=C(NCc1ccc(-n2ccnc2)cc1)[C@H]1OCC(=O)N(c2cccc(Cl)c2)[C@@H]1c1cccc(C(F)(F)F)c1 (racemic) | 39.3 | Toxic | – | – | –
O=C(NCc1ccc2c(c1)OCO2)[C@H]1CC(=O)N(c2cccc(Cl)c2)[C@@H]1c1cccc(F)c1 (racemic) | 79.5 | Toxic | 65 | 19 | –
CCOc1ccc(CNC(=O)[C@H]2CC(=O)N(c3cccc(Cl)c3)[C@@H]2c2ccc(Cl)cc2)cc1 (racemic) | 27.2 | Toxic | – | – | –
COCCN(Cc1ccc(N(C)C)cc1)C(=O)[C@H]1CC(=O)N(c2ccc(F)c(F)c2)[C@@H]1c1ccc(Cl)cc1 (racemic) | 19.2 | Toxic | – | – | –
Cc1cccc([C@@H]2[C@@H](C(=O)NCCc3ccc(Cl)cc3)OCC(=O)N2c2ccc(F)c(Cl)c2)c1 (racemic) | 14.3 | Toxic | – | – | –
COc1cc(CNC(=O)[C@H]2CCC(=O)N(c3ccccc3)[C@@H]2c2ccc(Cl)cc2)ccc1OC(C)C (racemic) | 69.1 | Toxic | 81 | 26 | –
CCOc1cccc(CNC(=O)[C@H]2OCC(=O)N(c3ccc(F)c(Cl)c3)[C@@H]2c2cccc(F)c2)c1 (racemic) | 1.6 | Toxic | – | – | –
COc1ccc(N2C(=O)CN(C(=O)c3ccncc3)[C@H](C(=O)NCc3cccc(C)c3)[C@H]2c2ccc(Cl)cc2)cc1 (racemic) | 11.1 | Toxic | – | – | –
Cc1cccc([C@@H]2[C@@H](C(=O)NCc3ccc(Cl)cc3)OCC(=O)N2c2ccc(F)c(Cl)c2)c1 (racemic) | 16.8 | Toxic | – | – | –
O=C(NCc1ccc(Cl)cc1)[C@H]1OCC(=O)N(c2cccc(Cl)c2)[C@@H]1c1cccc(C(F)(F)F)c1 (relative stereo) | 84.6 | Toxic | 40 | 12 | –
COCCCN(Cc1ccc(N2CCCC2)cc1)C(=O)[C@H]1CC(=O)N(c2cccc(Cl)c2)[C@@H]1c1ccc(Cl)cc1 (relative stereo) | 24.1 | Toxic | – | – | –
CC(C)Oc1ccc([C@@H]2[C@@H](C(=O)NCc3ccc(-n4ccnc4)cc3)CCC(=O)N2c2ccc(OC3CCCC3)cc2)cc1 (relative stereo) | 35.2 | Toxic | – | – | –
CC(C)[C@@H](CS(=O)(=O)C(C)C)N1C(=O)[C@@](C)(CC(=O)O)C[C@H](c2cccc(Cl)c2)[C@H]1c1ccc(Cl)cc1 [NAVTEMADLIN] | 112 | – | 33 | 7 | –
COc1ccc(C2=N[C@@H](c3ccc(Cl)cc3)[C@@H](c3ccc(Cl)cc3)N2C(=O)N2CCNC(=O)C2)c(OC(C)C)c1 [NUTLIN-3] | – | – | 29 | 9 | Toxic
CC(C)(C)C[C@@H]1N[C@@H](C(=O)N[C@H]2CC[C@H](O)CC2)[C@H](c2cccc(Cl)c2F)[C@]12C(=O)Nc1cc(Cl)ccc12 [SAR-405838] | 115 | – | 38 | 6 | –
